Measurements from US20210045383A1, “ORGANIC METABOLITE COMPOSITIONS AND METHODS OF USE AS MITICIDES FOR HONEY BEES” (priority 2018, published 2021).

What was measured:
Varroa destructor = assay: Test hives treated with miticide treatment strips; mite levels by sugar roll method and sticky board mite drops; conditions: for mite loads once treatment resumed: after skipped mid-summer treatment (mite counts above 3 per 100 bees in September); for mites loads in the treated hives: single treatments on a three-month schedule
honey bees = conditions: applied using the Dribble Method; cited from earlier work

N[C@@H](CC(=O)O)C(=O)O [aspartic acid]
mite loads once treatment resumed (Varroa destructor): reduced mite loads to an acceptable level | mites loads in the treated hives (Varroa destructor): zero

N[C@@H](CCC(=O)O)C(=O)O [glutamic acid]
mite loads once treatment resumed (Varroa destructor): reduced mite loads to an acceptable level | mites loads in the treated hives (Varroa destructor): zero

O=C(O)C(=O)O [oxalic acid]
bee mortality (honey bees): Increased bee mortality
